These results are taken from patent publication US20220153746A1, “NITROGEN OXIDE-DONATING PDE-5 AND/OR PDE-6 INHIBITOR COMPOUNDS, AND USES THEREOF” (ILDONG PHARMACEUTICAL CO., LTD., priority 2020, published 2022).

Where only a bound is given, the exact number is not on record here.

The target of one assay is human PDE-6C (Homo sapiens, UniProt P51160). The assay can be described thus: Human PDE-6C inhibition assay (fluorescence polarization, FAM-cGMP). The format is biochemical. The settings on record: read-out: IC50 (μM) PDE6C. (Fluorescence polarisation rises when a labelled molecule tumbles more slowly, as on binding a larger partner.)
Sequence of human PDE-6C (P51160 whole entry): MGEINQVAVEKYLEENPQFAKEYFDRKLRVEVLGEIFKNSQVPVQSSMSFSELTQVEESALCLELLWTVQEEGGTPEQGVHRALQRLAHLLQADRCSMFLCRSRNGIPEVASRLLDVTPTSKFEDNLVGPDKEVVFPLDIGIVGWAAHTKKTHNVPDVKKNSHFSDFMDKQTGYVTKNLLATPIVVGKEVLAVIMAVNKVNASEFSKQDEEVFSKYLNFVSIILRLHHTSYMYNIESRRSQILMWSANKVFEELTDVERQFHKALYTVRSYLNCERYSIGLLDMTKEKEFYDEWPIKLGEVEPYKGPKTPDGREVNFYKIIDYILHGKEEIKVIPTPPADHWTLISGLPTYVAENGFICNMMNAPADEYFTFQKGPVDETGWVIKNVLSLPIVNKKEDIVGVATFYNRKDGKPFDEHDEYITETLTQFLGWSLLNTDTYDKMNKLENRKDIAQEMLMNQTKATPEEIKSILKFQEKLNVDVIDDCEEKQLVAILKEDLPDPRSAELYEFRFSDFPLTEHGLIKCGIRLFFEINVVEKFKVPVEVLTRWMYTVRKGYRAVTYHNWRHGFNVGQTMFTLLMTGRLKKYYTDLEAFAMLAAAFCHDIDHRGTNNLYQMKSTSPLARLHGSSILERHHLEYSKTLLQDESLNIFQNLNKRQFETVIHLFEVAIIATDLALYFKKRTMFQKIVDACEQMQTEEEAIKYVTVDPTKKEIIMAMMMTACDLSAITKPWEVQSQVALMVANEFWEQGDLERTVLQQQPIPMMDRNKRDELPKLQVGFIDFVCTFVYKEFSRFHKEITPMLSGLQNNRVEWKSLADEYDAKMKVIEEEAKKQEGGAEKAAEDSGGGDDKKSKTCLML
A further assay has as its target human PDE-5A1 (Homo sapiens, UniProt O76074). The assay is described as follows: Human PDE-5A1 inhibition assay (fluorescence polarization, FAM-cGMP). The format is biochemical. The settings on record: read-out: IC50 (μM) PDE5A1.

Consider `CCCc1nn(C)c2c(=O)[nH]c(-c3cc(S(=O)(=O)N4CC(O)C4)ccc3OCC)nc12` [Compound 1, 5-(2-ethoxy-5-((3-hydroxyazetidin-1-yl)sulfonyl)phenyl)-1-methyl-3-propyl-1,6-dihydro-7H-pyrazolo[4,3-d] pyrimidin-7-one], for which the concentration for half-maximal inhibition (IC50) at human PDE-6C and at human PDE-5A1 was 0.01 to 0.1 µM throughout.

As to `CCCc1nn(C)c2c(=O)[nH]c(-c3cc(S(=O)(=O)N4CC(CO)C4)ccc3OCC)nc12` [Compound 2, 5-(2-ethoxy-5-((3-(hydroxymethyl)azetidin-1-yl)sulfonyl)phenyl)-1-methyl-3-propyl-1,6-dihydro-7H-pyrazolo[4,3-d]pyrimidin-7-one], the IC50 on human PDE-6C and on human PDE-5A1 was 0.01 to 0.1 µM each time.

Take `CCCc1nn(C)c2c(=O)[nH]c(-c3cc(S(=O)(=O)N4CC(CCO)C4)ccc3OCC)nc12` [Compound 3, 5-(2-ethoxy-5-((3-(2-hydroxyethyl)azetidin-1-yl)sulfonyl)phenyl)-1-methyl-3-propyl-1,6-dihydro-7H-pyrazolo[4,3-d]pyrimidin-7-one]: the IC50 on human PDE-6C and at human PDE-5A1 was less than 0.01 µM throughout.

With `CCCc1nn(C)c2c(=O)[nH]c(-c3cc(S(=O)(=O)N4CC(CN)C4)ccc3OCC)nc12` [Compound 5, 5-(5-((3-(aminomethyl)azetidin-1-yl)sulfonyl)-2-ethoxyphenyl)-1-methyl-3-propyl-1,6-dihydro-7H-pyrazolo[4,3-d] pyrimidin-7-one], the IC50 was 0.01 to 0.1 µM on human PDE-6C and more than 0.1 µM at human PDE-5A1.

Turning to `CCCc1nn(C)c2c(=O)[nH]c(-c3cc(S(=O)(=O)NC4CN(CCO)C4)ccc3OCC)nc12` [Compound 6, 4-ethoxy-N-(1-(2-hydroxyethyl)azetidin-3-yl)-3-(1-methyl-7-oxo-3-propyl-6,7-dihydro-1H-pyrazolo[4,3-d]pyrimidin-5-yl)benzenesulfonamide], the IC50 on human PDE-6C and on human PDE-5A1 was 0.01 to 0.1 µM throughout.

For the compound `CCCc1nn(C)c2c(=O)[nH]c(-c3cc(S(=O)(=O)NC4CN(CCCO)C4)ccc3OCC)nc12` [Compound 7, 4-ethoxy-N-(1-(3-hydroxypropyl)azetidin-3-yl)-3-(1-methyl-7-oxo-3-propyl-6,7-dihydro-1H-pyrazolo[4,3-d]pyrimidin-5-yl)benzenesulfonamide], the 50% inhibitory concentration (IC50) on human PDE-6C and at human PDE-5A1 was 0.01 to 0.1 µM throughout.

In the case of `CCCc1nn(C)c2c(=O)[nH]c(-c3cc(S(=O)(=O)NC4CN(CCCCO)C4)ccc3OCC)nc12` [Compound 8, 4-ethoxy-N-(1-(4-hydroxybutyl)azetidin-3-yl)-3-(1-methyl-7-oxo-3-propyl-6,7-dihydro-1H-pyrazolo[4,3-d]pyrimidin-5-yl)benzenesulfonamide], the IC50 at human PDE-6C and on human PDE-5A1 was 0.01 to 0.1 µM in each case.

In the case of `CCCc1nc(C)c2c(=O)[nH]c(-c3cc(S(=O)(=O)N4CC(O)C4)ccc3OCC)nn12` [Compound 41, 2-(2-ethoxy-5-((3-hydroxyazetidin-1-yl)sulfonyl)phenyl)-5-methyl-7-propylimidazo[5,1-f][1,2,4]triazin-4(3H)-one], the half-inhibitory concentration (IC50) at human PDE-5A1 was less than 0.01 µM.

For the compound `CCCc1nc(C)c2c(=O)[nH]c(-c3cc(S(=O)(=O)N4CC(CO)C4)ccc3OCC)nn12` [Compound 42, 2-(2-ethoxy-5-((3-(hydroxymethyl)azetidin-1-yl)sulfonyl)phenyl)-5-methyl-7-propylimidazo[5,1-f][1,2,4]triazin-4(3H)-one], the IC50 at human PDE-5A1 is less than 0.01 µM.

Consider `CCCc1nc(C)c2c(=O)[nH]c(-c3cc(S(=O)(=O)N4CC(CCO)C4)ccc3OCC)nn12` [Compound 43, 2-(2-ethoxy-5-((3-(2-hydroxyethyl)azetidin-1-yl)sulfonyl)phenyl)-5-methyl-7-propylimidazo[5,1-f][1,2,4]triazin-4(3H)-one], for which the IC50 on human PDE-5A1 is less than 0.01 µM.

As to `CCCc1nc(C)c2c(=O)[nH]c(-c3cc(S(=O)(=O)N4CC(CCCO)C4)ccc3OCC)nn12` [Compound 44, 2-(2-ethoxy-5-((3-(3-hydroxypropyl)azetidin-1-yl)sulfonyl)phenyl)-5-methyl-7-propylimidazo[5,1-f][1,2,4]triazin-4(3H)-one], the IC50 on human PDE-5A1 is less than 0.01 µM.

Regarding `CCCc1nc(C)c2c(=O)[nH]c(-c3cc(S(=O)(=O)N4CC(CN)C4)ccc3OCC)nn12` [Compound 45], the concentration for half-maximal inhibition (IC50) on human PDE-5A1 was less than 0.01 µM.

Turning to `CCCc1nc(C)c2c(=O)[nH]c(-c3cc(S(=O)(=O)NC4CN(CCO)C4)ccc3OCC)nn12` [Compound 46, 4-ethoxy-N-(1-(2-hydroxyethyl)azetidin-3-yl)-3-(5-methyl-4-oxo-7-propyl-3,4-dihydroimidazo[5,1-f][1,2,4]triazin-2-yl)benzenesulfonamide], the IC50 on human PDE-5A1 is less than 0.01 µM.

With `CCCc1nc(C)c2c(=O)[nH]c(-c3cc(S(=O)(=O)NC4CN(CCCO)C4)ccc3OCC)nn12` [Compound 47, 4-ethoxy-N-(1-(3-hydroxypropyl)azetidin-3-yl)-3-(5-methyl-4-oxo-7-propyl-3,4-dihydroimidazo[5,1-f][1,2,4]triazin-2-yl)benzenesulfonamide], on human PDE-5A1, the half-maximal inhibitory concentration (IC50) was less than 0.01 µM.

With `CCCc1nc(C)c2c(=O)[nH]c(-c3cc(S(=O)(=O)N4CC(NCCO)C4)ccc3OCC)nn12` [Compound 49, 2-(2-ethoxy-5-((3-((2-hydroxyethyl)amino)azetidin-1-yl)sulfonyl)phenyl)-5-methyl-7-propylimidazo[5,1-f][1,2,4]triazin-4(3H)-one], the half-inhibitory concentration (IC50) at human PDE-5A1 is less than 0.01 µM.

With `CCCc1nc(C)c2c(=O)[nH]c(-c3cc(S(=O)(=O)N4CC(NCCCO)C4)ccc3OCC)nn12` [Compound 50, 2-(2-ethoxy-5-((3-((3-hydroxypropyl)amino)azetidin-1-yl)sulfonyl)phenyl)-5-methyl-7-propylimidazo[5,1-f][1,2,4]triazin-4(3H)-one], at human PDE-5A1, the IC50 was less than 0.01 µM.

`CCCc1nc(C)c2c(=O)[nH]c(-c3cc(S(=O)(=O)N4CC(N(C)CCO)C4)ccc3OCC)nn12` [Compound 52, 2-(2-ethoxy-5-((3-((2-hydroxyethyl)(methyl)amino)azetidin-1-yl)sulfonyl)phenyl)-5-methyl-7-propylimidazo[5,1-f][1,2,4]triazin-4(3H)-one]: the IC50 at human PDE-5A1 was less than 0.01 µM.

`CCCc1nc(C)c2c(=O)[nH]c(-c3cc(S(=O)(=O)N4CC(N(C)CCCO)C4)ccc3OCC)nn12` [Compound 53, 2-(2-ethoxy-5-((3-((3-hydroxypropyl)(methyl)amino)azetidin-1-yl)sulfonyl)phenyl)-5-methyl-7-propylimidazo[5,1-f][1,2,4]triazin-4(3H)-one]: the IC50 on human PDE-5A1 was less than 0.01 µM.

For the compound `CCCc1nc(C)c2c(=O)[nH]c(-c3cc(S(=O)(=O)N4CC(O[N+](=O)[O-])C4)ccc3OCC)nn12` [Compound 55, 1-((4-ethoxy-3-(5-methyl-4-oxo-7-propyl-3,4-dihydroimidazo[5,1-f][1,2,4]triazin-2-yl)phenyl)sulfonyl)azetidin-3-yl nitrate], on human PDE-5A1, the IC50 was less than 0.01 µM.

For the compound `CCCc1nc(C)c2c(=O)[nH]c(-c3cc(S(=O)(=O)N4CC(CO[N+](=O)[O-])C4)ccc3OCC)nn12` [Compound 56, (1-((4-ethoxy-3-(5-methyl-4-oxo-7-propyl-3,4-dihydroimidazo[5,1-f][1,2,4]triazin-2-yl)phenyl)sulfonyl)azetidin-3-yl)methyl nitrate], on human PDE-5A1, the IC50 is less than 0.01 µM.

On to `CCCc1nc(C)c2c(=O)[nH]c(-c3cc(S(=O)(=O)N4CC(CCO[N+](=O)[O-])C4)ccc3OCC)nn12` [Compound 57, 2-(1-((4-ethoxy-3-(5-methyl-4-oxo-7-propyl-3,4-dihydroimidazo[5,1-f][1,2,4]triazin-2-yl)phenyl)sulfonyl)azetidin-3-yl) ethyl nitrate], for which, on human PDE-5A1, the IC50 is less than 0.01 µM.

Regarding `CCCc1nc(C)c2c(=O)[nH]c(-c3cc(S(=O)(=O)N4CC(CCCO[N+](=O)[O-])C4)ccc3OCC)nn12` [Compound 58, 3-(1-((4-ethoxy-3-(5-methyl-4-oxo-7-propyl-3,4-dihydroimidazo[5,1-f][1,2,4]triazin-2-yl)phenyl)sulfonyl)azetidin-3-yl) propyl nitrate], at human PDE-5A1, the half-inhibitory concentration (IC50) is less than 0.01 µM.

Regarding `CCCc1nc(C)c2c(=O)[nH]c(-c3cc(S(=O)(=O)NC4CN(CCO[N+](=O)[O-])C4)ccc3OCC)nn12` [Compound 59, 2-(3-((4-ethoxy-3-(5-methyl-4-oxo-7-propyl-3,4-dihydroimidazo[5,1-f][1,2,4]triazin-2-yl)phenyl)sulfonamido)azetidin-1-yl)ethyl nitrate], at human PDE-5A1, the half-inhibitory concentration (IC50) was less than 0.01 µM.

As to `CCCc1nc(C)c2c(=O)[nH]c(-c3cc(S(=O)(=O)NC4CN(CCCO[N+](=O)[O-])C4)ccc3OCC)nn12` [Compound 60, 3-(3-((4-ethoxy-3-(5-methyl-4-oxo-7-propyl-3,4-dihydroimidazo[5,1-f][1,2,4]triazin-2-yl)phenyl)sulfonamido)azetidin-1-yl)propyl nitrate], on human PDE-5A1, the IC50 is less than 0.01 µM.

On to `CCCc1nc(C)c2c(=O)[nH]c(-c3cc(S(=O)(=O)N4CC(NCCO[N+](=O)[O-])C4)ccc3OCC)nn12` [Compound 61, 2-((1-((4-ethoxy-3-(5-methyl-4-oxo-7-propyl-3,4-dihydroimidazo[5,1-f][1,2,4]triazin-2-yl)phenyl)sulfonyl)azetidin-3-yl)amino)ethyl nitrate], for which the IC50 on human PDE-5A1 is less than 0.01 µM.

On to `CCCc1nc(C)c2c(=O)[nH]c(-c3cc(S(=O)(=O)N4CC(NCCCO[N+](=O)[O-])C4)ccc3OCC)nn12` [Compound 62, 3-((1-((4-ethoxy-3-(5-methyl-4-oxo-7-propyl-3,4-dihydroimidazo[5,1-f][1,2,4]triazin-2-yl)phenyl)sulfonyl)azetidin-3-yl)amino)propyl nitrate], for which the IC50 on human PDE-5A1 is less than 0.01 µM.

Consider `CCCc1nc(C)c2c(=O)[nH]c(-c3cc(S(=O)(=O)N4CC(N(C)CCO[N+](=O)[O-])C4)ccc3OCC)nn12` [Compound 63, 2-((1-((4-ethoxy-3-(5-methyl-4-oxo-7-propyl-3,4-dihydroimidazo[5,1-f][1,2,4]triazin-2-yl)phenyl)sulfonyl)azetidin-3-yl)(methyl)amino)ethyl nitrate], for which, on human PDE-5A1, the IC50 is less than 0.01 µM.

As to `CCCc1nc(C)c2c(=O)[nH]c(-c3cc(S(=O)(=O)N4CC(N(C)CCCO[N+](=O)[O-])C4)ccc3OCC)nn12` [Compound 64, 3-((1-((4-ethoxy-3-(5-methyl-4-oxo-7-propyl-3,4-dihydroimidazo[5,1-f][1,2,4]triazin-2-yl)phenyl)sulfonyl)azetidin-3-yl)(methyl)amino)propyl nitrate], the IC50 on human PDE-5A1 is less than 0.01 µM.

Usually IC50 stands for the midpoint of a concentration-inhibition curve.
